{"source": "paper PMC10202359", "about": "“Nicotinamide N-methyltransferase (NNMT) regulates the glucocorticoid signaling pathway during the early phase of adipogenesis” (Scientific Reports, 2023)", "key": {"[1]": {"tested_on": "Nnmt expression in 3T3-L1 cells", "experiment": "Nnmt mRNA by real-time PCR in 3T3-L1", "assay_type": "cell-based, mouse", "conditions": "post-confluent 3T3-L1 treated 48 h with individual DIM components, vs unstimulated cells", "procedure": "3T3-L1 Mouse Embryonic Fibroblasts were purchased from American Type Culture Collection (ATCC CL-173). The cells were propagated and maintained in Dulbecco’s modified Eagle’s medium (DMEM, Gibco) supplemented with 10% calf serum (FCS) at 37 °C in 5% CO2 atmosphere. Subconfluents cells were expanded and utilized for the subsequent experiments at the passages 3–6. To induce differentiation, 2-day post-confluent 3T3-L1 pre-adipocytes were cultured for 48 h with DIM (DMEM supplemented with 10% fetal bovine serum (FBS), 1.0 µM Dexamethasone (G. Biosciences), […] Insulin (Sigma) and 0.5 mM IBMX (Sigma). Two days after induction the DIM medium was removed and the cells were maintained in DMED supplemented with 10% FBS and […] Insulin, which was replaced every 48 h, until the cells became fully differentiated (8–10 days after induction). C3H10T1/2 cells were purchased from American Type Culture Collection (ATCC, clone 8, CCL-226, were grown and induced to differentiate following the same protocol, with cell cultures < 3 passages. […] Real-time PCRs were performed using SYBR Green PCR Master Mix (Applied Biosystems) with an ABI PRISM 7900HT Sequence Detection System (Applied Biosystems). RT-PCR data were normalized to GAPDH and expressed relative to control (ddCt method)."}, "[2]": {"biological_target": "T1, DNMT3a (Homo sapiens, UniProt Q9Y6K1)", "T1 construct": "purchased Reaction Biology Corporation", "T1 sequence (Q9Y6K1 whole entry, looked up, species assumed)": "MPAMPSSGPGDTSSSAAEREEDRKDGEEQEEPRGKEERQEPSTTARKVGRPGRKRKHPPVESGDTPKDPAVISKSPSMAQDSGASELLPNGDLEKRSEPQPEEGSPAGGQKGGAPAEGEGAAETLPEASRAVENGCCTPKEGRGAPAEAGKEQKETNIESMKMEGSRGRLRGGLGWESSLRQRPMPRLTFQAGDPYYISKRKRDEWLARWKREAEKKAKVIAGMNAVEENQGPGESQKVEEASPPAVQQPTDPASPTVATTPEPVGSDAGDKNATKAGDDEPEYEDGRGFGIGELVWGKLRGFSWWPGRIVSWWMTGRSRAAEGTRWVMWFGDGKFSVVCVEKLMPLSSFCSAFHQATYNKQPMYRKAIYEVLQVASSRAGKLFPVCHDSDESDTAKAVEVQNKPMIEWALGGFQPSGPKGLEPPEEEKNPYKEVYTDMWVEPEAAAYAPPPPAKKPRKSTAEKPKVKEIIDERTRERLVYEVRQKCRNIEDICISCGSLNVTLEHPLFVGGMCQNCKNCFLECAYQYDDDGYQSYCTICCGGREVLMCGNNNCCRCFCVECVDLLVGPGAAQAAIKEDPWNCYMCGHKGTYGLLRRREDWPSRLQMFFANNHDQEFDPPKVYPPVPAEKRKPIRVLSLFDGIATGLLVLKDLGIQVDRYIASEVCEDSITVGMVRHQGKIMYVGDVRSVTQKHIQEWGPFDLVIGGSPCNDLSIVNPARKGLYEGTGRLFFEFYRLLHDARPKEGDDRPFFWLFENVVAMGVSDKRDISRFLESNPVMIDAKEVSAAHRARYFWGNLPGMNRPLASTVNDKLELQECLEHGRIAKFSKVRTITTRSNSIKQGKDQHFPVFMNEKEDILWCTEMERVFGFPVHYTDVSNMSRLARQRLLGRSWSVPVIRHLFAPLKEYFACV", "experiment": "Methyltransferase Hot Spot radioisotope assay, DNMT3a", "assay_type": "biochemical", "procedure": "(§1) CC-410 was screened in biochemical assays for activity against a panel of 11 methyltransferases (MT) by using the radioisotope (3H-AdoMet) based MT Hot Spot Assay. All the assays were performed by Reaction Biology Corporation (RBC, Malven, PA, USA). Briefly CC-410 was incubated with the selected MTs, corresponding substrates, and radiolabeled SAM (S-Adenosyl-L-[methyl-3 H]methionine). The specific MTs assessed, and the corresponding substrates are as follows: DNMT1- Poly dl-dC, DNMT3a- Lambda DNA, DNMT3b- Lambda DNA, DOT1L- Nucleosomes, EZH2 Complex- Core Histone, METTL21A- HSPA8-[CTD], NRMT1- RCC1, PRMT3- Histone H4, PRMT5/MEP50- Histone H2A, SET1b -Core Histone Complex and SMYD2- Nucleosomes. Reaction mixtures were incubated and spotted onto filter papers, which were then washed to remove unreacted SAM, leaving the bound radiolabeled product. Detection of the radiolabeled, methylated product was performed via a nanoliter-scale radioisotope filter binding platform. […] For each assay, control compounds were included as positive controls for enzyme function and assay reproducibility. […] IC50 was calculated by non-linear least square fitting dose–response curve."}, "[3]": {"biological_target": "T2, DNMT3b (Homo sapiens, UniProt Q9UBC3)", "T2 construct": "purchased Reaction Biology Corporation", "experiment": "Methyltransferase Hot Spot radioisotope assay, DNMT3b", "assay_type": "biochemical", "procedure": "as §1"}, "[4]": {"biological_target": "METTL21A (Homo sapiens, UniProt Q8WXB1)", "sequence (Q8WXB1 whole entry, species assumed)": "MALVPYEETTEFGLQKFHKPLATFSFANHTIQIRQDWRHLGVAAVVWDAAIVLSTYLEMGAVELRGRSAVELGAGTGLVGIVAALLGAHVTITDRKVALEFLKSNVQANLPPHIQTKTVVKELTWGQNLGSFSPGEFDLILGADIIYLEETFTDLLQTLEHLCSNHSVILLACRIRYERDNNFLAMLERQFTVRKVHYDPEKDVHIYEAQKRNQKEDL", "experiment": "Methyltransferase Hot Spot radioisotope assay, METTL21A", "assay_type": "biochemical", "conditions": "10-dose, threefold dilution; CC-410 from 300 μM, control from 100 μM; substrate HSPA8-[CTD]", "procedure": "as §1, with “The specific MTs assessed, and the corresponding substrates are as follows: DNMT1- Poly dl-dC, DNMT3a- Lambda DNA, DNMT3b- Lambda DNA, DOT1L- Nucleosomes, EZH2 Complex- Core Histone, METTL21A- HSPA8-[CTD], NRMT1- RCC1, PRMT3- Histone H4, PRMT5/MEP50- Histone H2A, SET1b -Core Histone Complex and SMYD2- Nucleosomes.” left out"}, "[5]": {"biological_target": "T3, NRMT1 (Homo sapiens, UniProt Q9BV86)", "T3 sequence (Q9BV86 1-223)": "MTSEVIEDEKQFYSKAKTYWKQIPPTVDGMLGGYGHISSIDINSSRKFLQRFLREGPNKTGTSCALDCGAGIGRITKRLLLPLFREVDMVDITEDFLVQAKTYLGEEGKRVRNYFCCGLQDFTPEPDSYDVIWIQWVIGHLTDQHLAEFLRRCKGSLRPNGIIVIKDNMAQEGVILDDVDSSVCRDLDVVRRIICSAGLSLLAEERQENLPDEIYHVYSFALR", "experiment": "Methyltransferase Hot Spot radioisotope assay, NRMT1", "assay_type": "biochemical", "conditions": "10-dose, threefold dilution; CC-410 from 300 μM, control from 100 μM; substrate RCC1", "procedure": "as §1"}, "[6]": {"biological_target": "PRMT3 (Homo sapiens, UniProt O60678)", "sequence (O60678 whole entry, species assumed)": "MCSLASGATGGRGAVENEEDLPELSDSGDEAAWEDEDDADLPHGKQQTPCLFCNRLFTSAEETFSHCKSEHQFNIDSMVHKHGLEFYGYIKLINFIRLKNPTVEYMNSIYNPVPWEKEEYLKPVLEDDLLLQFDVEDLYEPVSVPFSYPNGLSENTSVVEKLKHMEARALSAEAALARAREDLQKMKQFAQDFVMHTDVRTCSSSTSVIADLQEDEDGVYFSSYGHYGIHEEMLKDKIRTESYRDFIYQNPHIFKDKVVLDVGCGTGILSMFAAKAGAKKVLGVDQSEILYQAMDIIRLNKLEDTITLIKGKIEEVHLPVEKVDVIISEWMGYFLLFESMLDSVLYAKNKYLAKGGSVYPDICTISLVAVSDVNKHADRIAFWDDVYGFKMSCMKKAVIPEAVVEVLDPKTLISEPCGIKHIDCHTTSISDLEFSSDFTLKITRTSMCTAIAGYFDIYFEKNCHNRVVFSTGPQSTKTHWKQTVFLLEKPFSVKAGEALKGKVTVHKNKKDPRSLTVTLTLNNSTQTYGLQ", "experiment": "Methyltransferase Hot Spot radioisotope assay, PRMT3", "assay_type": "biochemical", "conditions": "10-dose, threefold dilution; CC-410 from 300 μM, control from 100 μM; substrate Histone H4; read-out: IC50* (M) PRMT3", "procedure": "as §1, with “The specific MTs assessed, and the corresponding substrates are as follows: DNMT1- Poly dl-dC, DNMT3a- Lambda DNA, DNMT3b- Lambda DNA, DOT1L- Nucleosomes, EZH2 Complex- Core Histone, METTL21A- HSPA8-[CTD], NRMT1- RCC1, PRMT3- Histone H4, PRMT5/MEP50- Histone H2A, SET1b -Core Histone Complex and SMYD2- Nucleosomes.” left out"}, "[7]": {"biological_target": "T4, SET1b Complex (Homo sapiens, UniProt Q9UPS6)", "T4 construct": "purchased Reaction Biology Corporation", "experiment": "Methyltransferase Hot Spot radioisotope assay, SET1b Complex", "assay_type": "biochemical", "conditions": "10-dose, threefold dilution; CC-410 from 300 μM, control from 100 μM; substrate Core Histone; read-out: IC50* (M) SET1b Complex", "procedure": "as §1"}}}
{"compound": "C[C@@H]1C[C@H]2[C@@H]3CCC4=CC(=O)C=C[C@]4(C)[C@@]3(F)[C@@H](O)C[C@]2(C)[C@@]1(O)C(=O)CO", "note": "[DEX, dexamethasone]", "values": [{"measurement": "Nnmt expression (mRNA, RT-PCR)", "setting": "[1]", "result": "induction comparable with that of the whole cocktail"}]}
{"compound": "Nc1ncnc2c1ncn2[C@@H]1O[C@H](CSCC[C@H](N)C(=O)O)[C@@H](O)[C@H]1O", "note": "[SAH, S-(5′-Adenosyl)-L-homocysteine, reference compound]", "values": [{"measurement": "IC50", "setting": "[2]", "result": 511, "unit": "nM"}, {"measurement": "IC50", "setting": "[3]", "result": 259, "unit": "nM"}, {"measurement": "IC50", "setting": "[4]", "result": 76.1, "unit": "µM"}, {"measurement": "IC50", "setting": "[5]", "result": 1680, "unit": "nM"}, {"measurement": "IC50", "setting": "[6]", "result": "3.88e-06", "unit": "M"}, {"measurement": "IC50", "setting": "[7]", "result": "2e-05", "unit": "M"}]}
{"compound": "insulin: component of the differentiation-inducing medium (DIM)", "values": [{"measurement": "Nnmt expression (mRNA, RT-PCR)", "setting": "[1]", "result": "neither insulin nor IBMX impacted Nnmt expression significantly"}]}
{"compound": "CC(C)Cn1c(=O)n(C)c(=O)c2[nH]cnc21", "note": "[IBMX, 3-isobutyl-1-methylxanthine]", "values": [{"measurement": "Nnmt expression (mRNA, RT-PCR)", "setting": "[1]", "result": "neither insulin nor IBMX impacted Nnmt expression significantly"}]}
